# Measured values reported in the supplement of paper PMC10307832.
# How the values were obtained:
# Assay in all cases: relative viability (nuclei count vs DMSO), 5 days (fraction); higher = more cells survive
# [1] = compound: CC1=CC(=C(N1C2=CC=C(C=C2)Cl)C)C(=O)CN3CCCCC3 [IU1-47] + COc1cc2c(Oc3ccc(NC(=O)C4(C(=O)Nc5ccc(F)cc5)CC4)cc3F)ccnc2cc1OCCCN1CCOCC1 [Foretinib] (partner 0.25 µM)
# Outline: (§1)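 Lung cancer cell lines, seeded in 1536-well plates, were treated the following day by pin tool with a single drug or with five library-drug doses (not always all listed) in √10 steps on top of a fixed anchor-drug dose. Cells were fixed and nuclei stained in one step after 5 days, and nuclei were counted. Relative viability is the nuclei count for treated wells divided by that for vehicle wells, reported as medians of duplicate plates.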
# [2] = compound: CC1=CC(=C(N1C2=CC=C(C=C2)Cl)C)C(=O)CN3CCCCC3 [IU1-47] + Nc1nc2[nH]cc(CCc3ccc(C(=O)N[C@@H](CCC(=O)O)C(=O)O)cc3)c2c(=O)[nH]1 [Pemetrexed] (partner 0.2 µM)
# Outline: as §1
# [3] = compound: Cc1nc(C(=O)NCC(=O)O)c(O)c2ccc(Oc3ccccc3)cc12 [FG-4592] + CC(C)C[C@H](NC(=O)[C@H](Cc1ccccc1)NC(=O)c1cnccn1)B(O)O [Bortezomib] (partner 0.002 µM)
# Outline: as §1
# [4] = compound: Cc1nc(C(=O)NCC(=O)O)c(O)c2ccc(Oc3ccccc3)cc12 [FG-4592] + C[C@@H](Oc1cc(-c2cnn(C3CCNCC3)c2)cnc1N)c1c(Cl)ccc(F)c1Cl [Crizotinib] (partner 1 µM)
# Outline: as §1
cell line,measurement,setting,value
UMC-11,relative viability,[1]; first compound 0.08 µM,1.13
same,relative viability,[1]; first compound 0.253 µM,0.99
same,relative viability,[1]; first compound 0.8 µM,1.25
same,relative viability,[1]; first compound 2.53 µM,1.15
same,relative viability,[1]; first compound 8 µM,1.13
same,relative viability,[2]; first compound 0.08 µM,0.777
same,relative viability,[2]; first compound 0.253 µM,0.716
same,relative viability,[2]; first compound 0.8 µM,0.811
same,relative viability,[2]; first compound 2.53 µM,0.903
same,relative viability,[2]; first compound 8 µM,0.796
same,relative viability,[3]; first compound 0.08 µM,0.752
same,relative viability,[3]; first compound 0.253 µM,0.771
same,relative viability,[3]; first compound 0.8 µM,0.633
same,relative viability,[3]; first compound 2.53 µM,0.75
same,relative viability,[3]; first compound 8 µM,0.692
same,relative viability,[4]; first compound 0.08 µM,0.546
same,relative viability,[4]; first compound 0.253 µM,0.644
same,relative viability,[4]; first compound 0.8 µM,0.582
same,relative viability,[4]; first compound 2.53 µM,0.642
same,relative viability,[4]; first compound 8 µM,0.536
